Test: Solubility of Iopamidol plotted against reflux time (FIG. 1)
Type: physicochemical
Method: With reference to FIG. 1, there is a graph showing the solubility of Iopamidol plotted against reflux time when a ratio of Iopamidol:water:ethanol 4:1:8 (w/v/v) is used in accordance with the method of the present invention. As shown in this graph, the reflux for 4 hours or greater allows the crystallized Iopamidol to have a solubility of 80% or greater. […] Because Iopamidol monohydrates or pentahydrates are of about 50% solubility, the method of the present invention can convert Iopamidol monohydrates or pentahydrates into Iopamidol anhydrides.
FIG. 1 is a graph showing the solubility change of the Iopamidol with reflux time.

| solubility (hydrated crystalline forms) | solubility (crystallized Iopamidol, Iopamidol:water:ethanol 4:1:8 (w/v/v), reflux for 4 hours or greater) [%] | Compound |
| --- | --- | --- |
| about 50% | – | C[C@H](O)C(=O)Nc1c(I)c(C(=O)NC(CO)CO)c(I)c(C(=O)NC(CO)CO)c1I [Iopamidol monohydrates, Iopamidol] |
| – | ≥ 80 | C[C@H](O)C(=O)Nc1c(I)c(C(=O)NC(CO)CO)c(I)c(C(=O)NC(CO)CO)c1I [Iopamidol] |
